# Reference: patent US8362256B2, “Salts of N-[4-(1-cyanocyclopentyl)phenyl]-2-(4-pyridylmethyl)amino-3-pyridinecarboxamide” (Jiangsu Hengrui Medicine Co. Ltd., priority 2008, dated 2013)
# Marks after values point to notes of the source that are not given here.
# How the values were obtained:
# Solubility = format: physicochemical
# [1] = Stability in different conditions, content by HPLC; format: physicochemical
# KDR = KDR (Homo sapiens, UniProt P35968); assay: ELISA tyrosine kinase inhibition; format: biochemical; conditions: average of 3 experiments; read-out: IC50 ± SD, KDR
# Chain of KDR (P35968 20-1356, species assumed): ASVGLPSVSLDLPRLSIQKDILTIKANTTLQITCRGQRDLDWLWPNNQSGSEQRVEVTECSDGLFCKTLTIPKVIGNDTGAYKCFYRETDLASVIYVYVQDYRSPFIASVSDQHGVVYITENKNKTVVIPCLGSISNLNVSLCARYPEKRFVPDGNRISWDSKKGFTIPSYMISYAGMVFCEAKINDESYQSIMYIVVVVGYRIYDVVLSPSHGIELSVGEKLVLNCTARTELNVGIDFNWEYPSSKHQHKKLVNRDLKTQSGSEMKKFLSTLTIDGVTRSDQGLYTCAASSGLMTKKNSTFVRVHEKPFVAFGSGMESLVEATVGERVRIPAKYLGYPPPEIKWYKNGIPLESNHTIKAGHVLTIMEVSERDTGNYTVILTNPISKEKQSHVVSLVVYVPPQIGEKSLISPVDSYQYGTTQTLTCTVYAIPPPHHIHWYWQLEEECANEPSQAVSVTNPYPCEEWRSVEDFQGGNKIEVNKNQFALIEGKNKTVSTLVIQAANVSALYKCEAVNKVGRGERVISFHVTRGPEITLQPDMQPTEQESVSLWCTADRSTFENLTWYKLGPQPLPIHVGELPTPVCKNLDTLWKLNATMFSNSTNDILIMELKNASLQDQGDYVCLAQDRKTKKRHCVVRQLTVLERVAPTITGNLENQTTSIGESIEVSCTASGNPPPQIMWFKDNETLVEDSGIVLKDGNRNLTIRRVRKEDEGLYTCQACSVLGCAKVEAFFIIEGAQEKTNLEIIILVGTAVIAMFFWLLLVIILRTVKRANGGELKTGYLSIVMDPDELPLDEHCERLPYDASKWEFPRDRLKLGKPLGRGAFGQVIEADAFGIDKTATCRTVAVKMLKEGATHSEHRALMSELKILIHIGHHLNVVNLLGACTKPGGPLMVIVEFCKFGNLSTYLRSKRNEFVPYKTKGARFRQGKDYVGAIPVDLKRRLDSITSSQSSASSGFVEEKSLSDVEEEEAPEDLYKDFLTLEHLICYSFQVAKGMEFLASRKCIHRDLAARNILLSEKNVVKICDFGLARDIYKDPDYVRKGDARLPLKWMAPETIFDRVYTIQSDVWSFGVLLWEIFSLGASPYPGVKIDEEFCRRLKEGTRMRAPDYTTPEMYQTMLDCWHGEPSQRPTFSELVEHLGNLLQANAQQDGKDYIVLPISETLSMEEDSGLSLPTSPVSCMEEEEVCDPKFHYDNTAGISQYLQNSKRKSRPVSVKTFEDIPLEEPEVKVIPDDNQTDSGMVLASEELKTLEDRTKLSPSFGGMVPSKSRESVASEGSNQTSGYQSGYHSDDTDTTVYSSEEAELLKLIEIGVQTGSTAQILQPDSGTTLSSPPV
# Description: (§1) Phosphorylation of substrate was determined with monoclonal antibody of anti-phosphorylation tyrosine (PY99). Goat anti-mouse IgG marked with HRP was then added, and the degree of phosphorylation of substrate was determined with OPD coloration. At the same time, the control group without tyrosine kinase and control wells of corresponding DMSO concentration were set up. 2 M of H2SO4 was added in 50 μl/well to terminate the reaction. Data was read with adjustable wavelength micro plate enzyme-labeling instrument VERSAmax (Sunnyvale, Calif., U.S.A.), followed by visualization reaction, OD490 nm value was then observed. […] Relative inhibition rate of drugs on tyrosine kinase protein was determined.
# c-Kit = c-Kit (Homo sapiens, UniProt P10721); assay: ELISA tyrosine kinase inhibition; format: biochemical; conditions: average of 3 experiments; read-out: IC50 ± SD, c-Kit
# Description: as §1
# EGFR1 = EGFR1 (Homo sapiens, UniProt P00533); assay: ELISA tyrosine kinase inhibition; format: biochemical
# Chain of EGFR1 (P00533 25-1210): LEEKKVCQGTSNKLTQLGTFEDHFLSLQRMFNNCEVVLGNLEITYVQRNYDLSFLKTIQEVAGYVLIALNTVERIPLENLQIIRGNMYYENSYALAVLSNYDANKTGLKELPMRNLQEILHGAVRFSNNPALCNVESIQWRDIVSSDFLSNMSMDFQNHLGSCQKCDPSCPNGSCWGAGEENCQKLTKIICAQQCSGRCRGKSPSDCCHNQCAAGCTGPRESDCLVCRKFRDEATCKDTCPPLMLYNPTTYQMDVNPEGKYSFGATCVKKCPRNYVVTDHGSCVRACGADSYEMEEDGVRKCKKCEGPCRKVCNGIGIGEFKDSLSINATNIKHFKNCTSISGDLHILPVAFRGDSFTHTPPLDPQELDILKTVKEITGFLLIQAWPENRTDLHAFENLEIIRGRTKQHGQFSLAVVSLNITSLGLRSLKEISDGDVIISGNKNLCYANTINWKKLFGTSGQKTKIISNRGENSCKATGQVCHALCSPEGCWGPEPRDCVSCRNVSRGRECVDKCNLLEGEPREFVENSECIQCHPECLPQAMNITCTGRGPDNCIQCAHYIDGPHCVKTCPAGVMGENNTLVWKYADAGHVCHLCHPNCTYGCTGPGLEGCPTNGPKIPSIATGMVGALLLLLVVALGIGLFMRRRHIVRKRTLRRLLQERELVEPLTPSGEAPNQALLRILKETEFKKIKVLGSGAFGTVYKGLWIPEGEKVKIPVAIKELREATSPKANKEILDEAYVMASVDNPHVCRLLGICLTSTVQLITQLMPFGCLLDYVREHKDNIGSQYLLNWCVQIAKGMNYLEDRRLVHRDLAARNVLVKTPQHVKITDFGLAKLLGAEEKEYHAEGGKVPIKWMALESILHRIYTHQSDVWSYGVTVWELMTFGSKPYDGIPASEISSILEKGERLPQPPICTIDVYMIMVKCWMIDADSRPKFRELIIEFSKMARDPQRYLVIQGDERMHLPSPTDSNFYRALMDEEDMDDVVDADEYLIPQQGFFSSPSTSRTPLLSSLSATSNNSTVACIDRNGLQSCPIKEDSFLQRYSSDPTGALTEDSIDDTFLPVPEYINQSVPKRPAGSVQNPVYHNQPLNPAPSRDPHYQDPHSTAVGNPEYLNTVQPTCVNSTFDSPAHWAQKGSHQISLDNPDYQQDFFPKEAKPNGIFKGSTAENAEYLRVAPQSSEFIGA
# Description: (§2) Phosphorylation of substrate was determined with monoclonal antibody of anti-phosphorylation tyrosine (PY99). Goat anti-mouse IgG marked with HRP was then added, and the degree of phosphorylation of substrate was determined with OPD coloration. At the same time, the control group without tyrosine kinase and control wells of corresponding DMSO concentration were set up. 2 M of H2SO4 was added in 50 μl/well to terminate the reaction. Data was read with adjustable wavelength micro plate enzyme-labeling instrument VERSAmax (Sunnyvale, Calif., U.S.A.), followed by visualization reaction, OD490 nm value was then observed.
# (§3) Relative inhibition rate of drugs on tyrosine kinase protein was determined.
# ErbB2 = ErbB2 (Homo sapiens, UniProt P04626); assay: ELISA tyrosine kinase inhibition; format: biochemical
# Chain of ErbB2 (P04626 23-1255, species assumed): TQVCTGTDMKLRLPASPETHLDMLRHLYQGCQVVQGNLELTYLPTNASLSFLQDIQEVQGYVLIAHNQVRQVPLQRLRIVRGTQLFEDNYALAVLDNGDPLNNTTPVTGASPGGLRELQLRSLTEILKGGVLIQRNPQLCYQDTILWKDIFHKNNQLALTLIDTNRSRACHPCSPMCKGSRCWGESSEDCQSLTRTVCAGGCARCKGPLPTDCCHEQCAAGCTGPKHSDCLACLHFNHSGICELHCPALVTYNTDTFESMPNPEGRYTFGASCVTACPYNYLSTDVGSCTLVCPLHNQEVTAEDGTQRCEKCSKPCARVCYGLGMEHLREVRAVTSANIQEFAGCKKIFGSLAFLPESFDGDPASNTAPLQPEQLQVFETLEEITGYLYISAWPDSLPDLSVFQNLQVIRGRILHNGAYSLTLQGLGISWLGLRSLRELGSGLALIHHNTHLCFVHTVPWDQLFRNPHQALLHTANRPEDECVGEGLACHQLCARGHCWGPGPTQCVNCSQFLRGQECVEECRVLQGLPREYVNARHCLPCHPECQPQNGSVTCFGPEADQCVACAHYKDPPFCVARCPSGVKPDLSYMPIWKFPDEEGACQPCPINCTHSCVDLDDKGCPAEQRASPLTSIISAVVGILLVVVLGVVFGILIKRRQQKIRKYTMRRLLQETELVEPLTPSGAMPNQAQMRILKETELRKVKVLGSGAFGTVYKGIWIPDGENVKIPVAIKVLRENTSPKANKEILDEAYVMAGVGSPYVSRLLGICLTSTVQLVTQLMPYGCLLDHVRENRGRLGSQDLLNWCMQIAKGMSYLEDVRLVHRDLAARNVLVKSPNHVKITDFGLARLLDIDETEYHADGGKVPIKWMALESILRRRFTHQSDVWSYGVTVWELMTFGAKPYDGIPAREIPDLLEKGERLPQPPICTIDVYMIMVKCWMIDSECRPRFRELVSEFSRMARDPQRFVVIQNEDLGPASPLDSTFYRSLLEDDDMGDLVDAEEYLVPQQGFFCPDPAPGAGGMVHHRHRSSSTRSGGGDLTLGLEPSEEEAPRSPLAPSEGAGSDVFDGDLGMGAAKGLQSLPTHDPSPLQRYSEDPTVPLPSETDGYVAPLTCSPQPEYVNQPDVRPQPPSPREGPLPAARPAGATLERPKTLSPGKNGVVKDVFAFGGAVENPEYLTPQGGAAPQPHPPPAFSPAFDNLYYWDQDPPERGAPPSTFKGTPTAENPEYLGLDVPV
# Description: as §2, §3
# FGFR1 = FGFR1 (Homo sapiens, UniProt P11362); assay: ELISA tyrosine kinase inhibition; format: biochemical
# Chain of FGFR1 (P11362 22-822, species assumed): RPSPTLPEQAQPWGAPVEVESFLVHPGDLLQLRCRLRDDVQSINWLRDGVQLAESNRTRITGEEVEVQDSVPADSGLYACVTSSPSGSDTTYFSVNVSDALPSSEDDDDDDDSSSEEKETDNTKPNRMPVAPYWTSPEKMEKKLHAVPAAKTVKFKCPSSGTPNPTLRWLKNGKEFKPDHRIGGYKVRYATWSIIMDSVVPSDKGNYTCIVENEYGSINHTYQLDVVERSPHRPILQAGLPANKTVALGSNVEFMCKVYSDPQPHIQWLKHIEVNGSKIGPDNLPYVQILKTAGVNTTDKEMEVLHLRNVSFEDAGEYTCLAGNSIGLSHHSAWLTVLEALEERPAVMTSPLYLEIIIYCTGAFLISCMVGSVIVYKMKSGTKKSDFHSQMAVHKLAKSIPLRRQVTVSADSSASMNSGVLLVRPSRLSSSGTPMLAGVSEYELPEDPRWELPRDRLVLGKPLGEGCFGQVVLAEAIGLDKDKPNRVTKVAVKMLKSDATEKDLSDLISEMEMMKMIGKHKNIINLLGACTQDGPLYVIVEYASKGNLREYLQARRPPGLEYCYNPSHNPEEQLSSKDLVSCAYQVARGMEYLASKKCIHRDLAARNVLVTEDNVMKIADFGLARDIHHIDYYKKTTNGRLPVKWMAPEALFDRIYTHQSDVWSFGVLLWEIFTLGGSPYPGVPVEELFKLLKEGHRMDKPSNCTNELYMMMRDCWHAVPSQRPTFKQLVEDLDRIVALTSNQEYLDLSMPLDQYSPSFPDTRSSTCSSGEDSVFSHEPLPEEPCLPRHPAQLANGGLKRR
# Description: as §2, §3
# Flt1 = Flt1 (Homo sapiens, UniProt P17948); assay: ELISA tyrosine kinase inhibition; format: biochemical; conditions: average of 3 experiments; read-out: IC50 ± SD, Flt1
# Description: as §2, §3
# PDGFRβ = PDGFRβ (Homo sapiens, UniProt P09619); assay: ELISA tyrosine kinase inhibition; format: biochemical; conditions: average of 3 experiments; read-out: IC50 ± SD, PDGFRβ
# Description: as §2, §3
# c-Src = c-Src (Homo sapiens, UniProt P12931); assay: ELISA tyrosine kinase inhibition; format: biochemical; conditions: average of 3 experiments; read-out: IC50 ± SD, c-Src
# Chain of c-Src (P12931 whole entry, species assumed): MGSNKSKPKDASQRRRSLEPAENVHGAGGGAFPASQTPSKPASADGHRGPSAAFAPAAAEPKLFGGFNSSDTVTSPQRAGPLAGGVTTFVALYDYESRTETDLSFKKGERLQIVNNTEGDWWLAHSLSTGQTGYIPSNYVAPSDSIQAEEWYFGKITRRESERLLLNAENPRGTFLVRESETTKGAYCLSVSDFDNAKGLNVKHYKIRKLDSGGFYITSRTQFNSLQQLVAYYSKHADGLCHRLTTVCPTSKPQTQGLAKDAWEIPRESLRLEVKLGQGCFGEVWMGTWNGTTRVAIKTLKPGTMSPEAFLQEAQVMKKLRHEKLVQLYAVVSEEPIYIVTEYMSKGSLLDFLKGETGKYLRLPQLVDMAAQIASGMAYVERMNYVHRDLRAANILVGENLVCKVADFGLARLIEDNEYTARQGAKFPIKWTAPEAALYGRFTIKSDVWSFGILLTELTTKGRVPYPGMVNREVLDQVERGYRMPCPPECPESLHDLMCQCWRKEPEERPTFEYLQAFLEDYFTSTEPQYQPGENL
# Description: as §2, §3
# human colon cancer HT-29 = assay: Efficacy on human colon cancer HT-29 transplanted in nude mice; conditions: for Weight after Removing Tumor, d0 / TV x ± SD, d0: d0 baseline; for RTV x ± SD / T/C / TV x ± SD, dn: dn 21 days; for Weight after Removing Tumor, dn: dn 21 days after first administration
# Description: BALB/cA-nude mice, ♀, 5-6 weeks-old, purchased from Shanghai Slaccas experimental animals limited liability company. […] Rearing environment: SPF grade.
# After one week adaption, the experimental animals were subcutaneously inoculated with human colon cancer HT-29 tumor tissues. When the tumors grew to 100-300 mm^3, the animals were randomly divided into several groups. […] Volume of tumors and weight of mice were measured 2-3 times every week, the data of which were recorded. The equation for the calculation of volume of tumors (V) is: V=½×a×b^2 wherein a, b represent length and width, respectively.
# in vivo = conditions: male, Sprague-Dawley, rat, po; for MRT: MRT of compound A; for Tmax: Tmax of compound A
# Text: Male Sprague-Dawley (SD) rats (weight: about 250 g, experimental animal certification of fitness: 0006473) were purchased from Shanghai Slaccas experimental animals limited liability company (certification number: SCXK (Hu) 2003-0003). The relevant qualifications and state of health of the SD rats were checked first, and the eligible ones were placed into the clean grade chambers of rats in Shanghai institute of Materia Medica.
# I. Analysis Condition of LC/MS/MS
# Analysis Condition of Liquid Chromatography
# Chromatographic column: Agilent Zorbax SB-C18 column (50 mm×2.1 mm ID);
# Column temperature: 25° C.;
# Mobile phase: A: H2O—CH3CN (2:98, v/v), B: H2O—CH3CN (10:90, v/v)
# A: 25%+B: 75%, constant gradient elution;
# Analysis time: 3 minutes.
# The light circle was switched to 12/12 hour day/night in the clean grade chambers of rats. Humidity and temperature were 40-60% and 20-24° C., respectively. Every 4 rats were raised in a 36×24×19 cm^3 stainless rat cage. The rats took water freely and were fed special rat food regularly once daily. Only after one week adaption, the rats were used to conduct pharmacokinetics studies. 12 Sprague-Dawley rats were divided into 4 groups, 3 for each group.
# The blood samples were collected 0 hour before the administration and 0.083, 0.25, 0.5, 1.0, 2, 4, 6, and 8 hours after the administration. The blood samples were collected at 250˜300 μL at each time point from posterior venous sinus of the eye after respiration anaesthesia with ether (the degree of anaesthesia was highly controlled). The blood was collected into test tubes containing heparin, and then was centrifuged to produce plasma. The obtained plasma was divided into 2 parts (50 μL for each part) and stored at −70° C. until analysis. […] After experiments, euthanasia was performed with CO2 gas.
# Pharmacokinetics parameters of animal experiment of each group were calculated using InnaPhase Kinetica™ software (America).
# [2] = concentration increased to 10^4 nM
# [3] = 50 mg/kg p.o. once daily d0-d20
# [4] = 100 mg/kg p.o. once daily d0-d20
# [5] = 200 mg/kg p.o. once daily d0-d20
smiles,measurement,setting,value
N#CC1(c2ccc(NC(=O)c3cccnc3NCc3ccncc3)cc2)CCCC1 [Mesylate of compound A],Solubility in water,Solubility,Insoluble
same,stability (conclusion of stability experiments),[1],most stable
same,content after 6 Months Under Light,"[1]; HPLC, initial purity 99.6%",99.5%
same,content after 6 Months at 60° C.,"[1]; HPLC, initial purity 99.6%",98.4%
same,content after 6 Months at Room Temperature,"[1]; HPLC, initial purity 99.6%",99.5%
same,IC50,KDR,2.43 nM
same,IC50,c-Kit,420 nM
same,IC50,"EGFR1; average of 3 experiments, read-out: IC50 ± SD, EGFR1",> 10000 nM
same,inhibition on EGFR1,EGFR1; [2],no inhibition
same,IC50,"ErbB2; average of 3 experiments, read-out: IC50 ± SD, ErbB2",> 10000 nM
same,inhibition on ErbB2,ErbB2; [2],no inhibition
same,IC50,"FGFR1; average of 3 experiments, read-out: IC50 ± SD, FGFR1",> 10000 nM
same,inhibition on FGFR1,FGFR1; [2],no inhibition
same,IC50,Flt1,70.1 nM
same,IC50,PDGFRβ,537 nM
same,IC50,c-Src,349 nM
same,"Weight after Removing Tumor, d0",human colon cancer HT-29; [3],16.1 g
same,RTV x ± SD,human colon cancer HT-29; [3],5.42 ± 1.55
same,T/C,human colon cancer HT-29; [3],62.5%
same,"TV x ± SD, dn",human colon cancer HT-29; [3],1250 ± 256
same,"Weight after Removing Tumor, dn",human colon cancer HT-29; [3],14.3 g
same,"TV x ± SD, d0",human colon cancer HT-29; 50 mg/kg p.o.,239 ± 49
same,"Weight after Removing Tumor, d0",human colon cancer HT-29; [4],17.0 g
same,RTV x ± SD,human colon cancer HT-29; [4],3.78 ± 1.46
same,T/C,human colon cancer HT-29; [4],43.6^a %
same,"TV x ± SD, dn",human colon cancer HT-29; [4],998 ± 296
same,"Weight after Removing Tumor, dn",human colon cancer HT-29; [4],16.4 g
same,"TV x ± SD, d0",human colon cancer HT-29; 100 mg/kg p.o.,272 ± 37
same,"Weight after Removing Tumor, d0",human colon cancer HT-29; [5],16.3 g
same,RTV x ± SD,human colon cancer HT-29; [5],2.21 ± 0.52
same,T/C,human colon cancer HT-29; [5],25.5^a %
same,"TV x ± SD, dn",human colon cancer HT-29; [5],571 ± 147
same,"Weight after Removing Tumor, dn",human colon cancer HT-29; [5],15.6 g
same,T/C,"human colon cancer HT-29; 200 mg/kg p.o. once daily d0-d20, listed as mesylate of compound A",25.5%
same,"TV x ± SD, d0",human colon cancer HT-29; 200 mg/kg p.o.,260 ± 39
same,tolerance,"human colon cancer HT-29; mouse, in vivo, po",well tolerated
same,AUC(0-t),"in vivo; 1 mmol/kg, AUC0→8 h Mol dose",17200 ± 6980 ng·h/mL
same,AUC(0-t),"in vivo; 20 mg/kg, AUC0→8 h of compound A, Mean ± SD",697 ± 283 ng·h/mL
same,concentration at 0 h,"in vivo; 20 mg/kg, Blood Concentration of compound A, 0 h",0 ng/mL
same,concentration at 4 h,"in vivo; 20 mg/kg, Blood Concentration of compound A, 4 h",30.5 ng/mL
same,concentration at 8 h,"in vivo; 20 mg/kg, Blood Concentration of compound A, 8 h",29.9 ng/mL
same,Cmax,"in vivo; 20 mg/kg, Cmax of compound A, Mean ± SD",489 ± 296 ng/mL
same,MRT,in vivo; 20 mg/kg,70.8 min
same,MRT,"in vivo; 20 mg/kg, Mean ± SD",98.4 ± 28.8 min
same,half-life,"in vivo; 20 mg/kg, T1/2 of compound A, Mean ± SD",52.2 ± 23.4 min
same,Tmax,in vivo; 20 mg/kg,15 min
same,Tmax,"in vivo; 20 mg/kg, Mean ± SD",19.8 ± 8.4 min
